Results on 9 compounds are retold here after ChEMBL document CHEMBL5291721, “A preclinical secondary pharmacology resource illuminates target-adverse drug reaction associations of marketed drugs” (Nat Commun, 2023).

Experiment [1] concerns the target T1, Muscarinic acetylcholine receptor M2 (Homo sapiens, UniProt P08172).
T1 sequence (P08172 whole entry): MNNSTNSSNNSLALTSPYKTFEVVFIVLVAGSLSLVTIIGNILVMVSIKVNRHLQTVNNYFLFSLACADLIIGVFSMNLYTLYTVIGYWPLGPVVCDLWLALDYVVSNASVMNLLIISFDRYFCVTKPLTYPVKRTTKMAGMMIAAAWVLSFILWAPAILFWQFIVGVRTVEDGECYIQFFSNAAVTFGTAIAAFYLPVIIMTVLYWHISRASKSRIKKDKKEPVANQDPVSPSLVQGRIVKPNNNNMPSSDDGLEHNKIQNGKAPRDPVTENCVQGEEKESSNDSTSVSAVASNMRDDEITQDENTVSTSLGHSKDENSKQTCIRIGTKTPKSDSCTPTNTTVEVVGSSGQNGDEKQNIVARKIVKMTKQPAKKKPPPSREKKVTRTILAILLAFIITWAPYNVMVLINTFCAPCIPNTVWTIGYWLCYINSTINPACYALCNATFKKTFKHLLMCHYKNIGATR
The format is functional, cell-based.

Experiment [2] has as its target Adenosine receptor A2a (Homo sapiens, UniProt P29274).
The target of experiment [3] is T2, B2 bradykinin receptor (Homo sapiens, UniProt P30411).
T2 sequence (P30411 whole entry): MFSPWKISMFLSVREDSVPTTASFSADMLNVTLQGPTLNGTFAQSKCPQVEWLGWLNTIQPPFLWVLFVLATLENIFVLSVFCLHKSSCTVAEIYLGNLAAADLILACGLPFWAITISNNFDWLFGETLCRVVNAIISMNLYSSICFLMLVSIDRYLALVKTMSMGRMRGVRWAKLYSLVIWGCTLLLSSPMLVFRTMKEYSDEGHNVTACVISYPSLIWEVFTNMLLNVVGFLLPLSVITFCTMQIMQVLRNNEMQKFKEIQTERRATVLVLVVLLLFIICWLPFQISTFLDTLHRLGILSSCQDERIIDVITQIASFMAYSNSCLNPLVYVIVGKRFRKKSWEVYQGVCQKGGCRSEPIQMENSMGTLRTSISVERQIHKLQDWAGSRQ

The target of experiment [4] is Gamma-aminobutyric acid receptor subunit alpha-1 (Rattus norvegicus, UniProt P62813).
Experiment [5] addresses T1, Muscarinic acetylcholine receptor M2. Format: functional, cell-based. This is another data set of the same source.
In experiment [6] the target is 5-hydroxytryptamine receptor 2A (Homo sapiens, UniProt P28223). Format: functional, cell-based.
Experiment [7] addresses T3, Equilibrative nucleoside transporter 1 (Homo sapiens, UniProt Q99808).
T3 sequence (Q99808 whole entry): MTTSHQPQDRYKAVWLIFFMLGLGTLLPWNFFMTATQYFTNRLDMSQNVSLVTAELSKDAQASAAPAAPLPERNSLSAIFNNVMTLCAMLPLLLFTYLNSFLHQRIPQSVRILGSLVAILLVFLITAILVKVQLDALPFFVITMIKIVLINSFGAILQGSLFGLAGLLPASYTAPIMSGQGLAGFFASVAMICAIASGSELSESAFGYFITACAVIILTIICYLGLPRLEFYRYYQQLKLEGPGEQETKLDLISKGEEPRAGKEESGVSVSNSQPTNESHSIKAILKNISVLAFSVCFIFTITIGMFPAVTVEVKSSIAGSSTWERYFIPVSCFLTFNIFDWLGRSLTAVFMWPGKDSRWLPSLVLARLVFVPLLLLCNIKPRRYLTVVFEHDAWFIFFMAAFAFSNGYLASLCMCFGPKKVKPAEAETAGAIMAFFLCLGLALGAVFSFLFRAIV

The target of experiment [8] is T4, Alpha-2A adrenergic receptor (Homo sapiens, UniProt P08913).
T4 sequence (P08913 whole entry): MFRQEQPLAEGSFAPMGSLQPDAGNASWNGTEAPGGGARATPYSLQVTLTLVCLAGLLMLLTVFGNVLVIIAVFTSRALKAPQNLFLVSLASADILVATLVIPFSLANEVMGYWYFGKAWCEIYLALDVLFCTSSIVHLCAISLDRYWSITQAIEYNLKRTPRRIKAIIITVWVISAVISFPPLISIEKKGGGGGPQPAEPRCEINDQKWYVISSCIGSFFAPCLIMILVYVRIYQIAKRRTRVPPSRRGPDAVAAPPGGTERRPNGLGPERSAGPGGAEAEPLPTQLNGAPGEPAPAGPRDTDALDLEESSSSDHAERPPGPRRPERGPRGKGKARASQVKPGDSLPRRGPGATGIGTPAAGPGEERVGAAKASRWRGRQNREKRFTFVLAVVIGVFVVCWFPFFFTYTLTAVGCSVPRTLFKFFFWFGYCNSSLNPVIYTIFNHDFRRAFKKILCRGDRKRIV
The format is functional, cell-based.

Experiment [9] concerns the target 5-hydroxytryptamine receptor 2B (Homo sapiens, UniProt P41595). Format: functional, cell-based.
Experiment [10] deals with T5, Prostaglandin G/H synthase 1 (Rattus norvegicus, UniProt Q63921).
T5 sequence (Q63921 whole entry): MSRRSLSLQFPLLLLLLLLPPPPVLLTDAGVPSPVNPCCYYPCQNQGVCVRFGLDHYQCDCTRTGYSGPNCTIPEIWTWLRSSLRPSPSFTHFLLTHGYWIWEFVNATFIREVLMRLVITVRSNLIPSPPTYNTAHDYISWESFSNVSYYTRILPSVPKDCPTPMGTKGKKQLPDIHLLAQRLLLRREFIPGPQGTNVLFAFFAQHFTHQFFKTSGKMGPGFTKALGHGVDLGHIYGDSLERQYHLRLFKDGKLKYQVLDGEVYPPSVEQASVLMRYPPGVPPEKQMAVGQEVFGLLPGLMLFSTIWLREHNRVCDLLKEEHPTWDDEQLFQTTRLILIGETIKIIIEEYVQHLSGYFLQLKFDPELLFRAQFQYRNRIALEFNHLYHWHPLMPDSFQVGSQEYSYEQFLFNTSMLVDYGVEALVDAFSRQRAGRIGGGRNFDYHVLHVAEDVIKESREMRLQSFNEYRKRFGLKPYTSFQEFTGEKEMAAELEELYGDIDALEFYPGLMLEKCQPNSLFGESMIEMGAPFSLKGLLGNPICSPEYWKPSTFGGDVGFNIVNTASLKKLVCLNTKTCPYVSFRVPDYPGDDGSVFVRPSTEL
Format: functional.

For experiment [11], the target named is Histamine H1 receptor (Homo sapiens, UniProt P35367).
Experiment [12] deals with Sodium-dependent serotonin transporter (Homo sapiens, UniProt P31645).
In experiment [13] the target is Vasopressin V2 receptor (Homo sapiens, UniProt P30518).
The target of experiment [14] is Beta-2 adrenergic receptor (Homo sapiens, UniProt P07550).
Also: assay procedure not described here.

Sequence of Adenosine receptor A2a (P29274 whole entry): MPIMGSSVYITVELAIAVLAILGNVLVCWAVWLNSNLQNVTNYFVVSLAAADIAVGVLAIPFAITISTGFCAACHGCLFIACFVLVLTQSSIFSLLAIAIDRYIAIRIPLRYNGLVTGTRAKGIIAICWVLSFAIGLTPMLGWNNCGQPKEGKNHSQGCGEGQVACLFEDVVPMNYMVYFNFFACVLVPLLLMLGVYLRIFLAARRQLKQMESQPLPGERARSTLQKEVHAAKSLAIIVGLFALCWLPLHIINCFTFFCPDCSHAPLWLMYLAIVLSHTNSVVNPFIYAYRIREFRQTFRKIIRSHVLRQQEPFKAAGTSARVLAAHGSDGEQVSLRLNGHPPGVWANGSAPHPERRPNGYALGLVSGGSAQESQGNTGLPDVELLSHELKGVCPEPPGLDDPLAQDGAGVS
Sequence of Sodium-dependent serotonin transporter (P31645 whole entry): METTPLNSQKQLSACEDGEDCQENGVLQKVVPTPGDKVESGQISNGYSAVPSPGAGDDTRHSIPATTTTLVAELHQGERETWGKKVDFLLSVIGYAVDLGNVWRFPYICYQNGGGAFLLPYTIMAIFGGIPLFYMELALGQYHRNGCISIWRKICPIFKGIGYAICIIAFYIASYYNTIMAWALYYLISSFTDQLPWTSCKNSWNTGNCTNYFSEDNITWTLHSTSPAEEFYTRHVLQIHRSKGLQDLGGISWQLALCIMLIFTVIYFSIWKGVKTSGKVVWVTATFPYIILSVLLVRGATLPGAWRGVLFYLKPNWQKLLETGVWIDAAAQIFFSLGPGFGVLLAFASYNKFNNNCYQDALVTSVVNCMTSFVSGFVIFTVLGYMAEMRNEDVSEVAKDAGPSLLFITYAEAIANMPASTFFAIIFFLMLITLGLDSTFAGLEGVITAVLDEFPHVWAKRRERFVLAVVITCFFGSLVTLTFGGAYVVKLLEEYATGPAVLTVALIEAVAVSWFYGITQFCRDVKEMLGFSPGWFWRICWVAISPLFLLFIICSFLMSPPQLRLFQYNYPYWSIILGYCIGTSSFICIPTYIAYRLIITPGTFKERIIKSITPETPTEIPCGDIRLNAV
Sequence of Histamine H1 receptor (P35367 whole entry): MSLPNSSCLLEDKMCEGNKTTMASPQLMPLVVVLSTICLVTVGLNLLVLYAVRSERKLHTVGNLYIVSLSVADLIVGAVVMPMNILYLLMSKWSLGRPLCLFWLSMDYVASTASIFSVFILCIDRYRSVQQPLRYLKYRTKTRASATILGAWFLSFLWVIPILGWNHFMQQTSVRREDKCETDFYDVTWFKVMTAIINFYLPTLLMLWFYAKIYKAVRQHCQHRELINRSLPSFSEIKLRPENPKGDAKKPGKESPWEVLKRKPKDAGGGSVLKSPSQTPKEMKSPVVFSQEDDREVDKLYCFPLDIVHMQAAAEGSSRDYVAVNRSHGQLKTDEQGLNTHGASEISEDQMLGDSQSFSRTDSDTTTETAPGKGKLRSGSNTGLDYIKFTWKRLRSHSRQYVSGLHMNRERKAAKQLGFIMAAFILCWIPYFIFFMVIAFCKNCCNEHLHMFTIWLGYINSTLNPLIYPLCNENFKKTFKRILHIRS
Sequence of Vasopressin V2 receptor (P30518 whole entry): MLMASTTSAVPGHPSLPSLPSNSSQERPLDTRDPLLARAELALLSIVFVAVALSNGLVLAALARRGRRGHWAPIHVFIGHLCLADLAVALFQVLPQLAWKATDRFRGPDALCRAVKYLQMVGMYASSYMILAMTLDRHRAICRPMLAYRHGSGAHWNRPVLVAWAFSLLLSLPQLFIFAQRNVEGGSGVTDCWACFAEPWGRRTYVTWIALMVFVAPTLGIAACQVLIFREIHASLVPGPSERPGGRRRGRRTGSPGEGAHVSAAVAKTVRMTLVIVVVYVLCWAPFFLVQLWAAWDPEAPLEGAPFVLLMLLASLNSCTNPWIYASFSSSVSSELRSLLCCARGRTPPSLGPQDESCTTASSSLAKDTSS
Sequence of Gamma-aminobutyric acid receptor subunit alpha-1 (P62813 whole entry): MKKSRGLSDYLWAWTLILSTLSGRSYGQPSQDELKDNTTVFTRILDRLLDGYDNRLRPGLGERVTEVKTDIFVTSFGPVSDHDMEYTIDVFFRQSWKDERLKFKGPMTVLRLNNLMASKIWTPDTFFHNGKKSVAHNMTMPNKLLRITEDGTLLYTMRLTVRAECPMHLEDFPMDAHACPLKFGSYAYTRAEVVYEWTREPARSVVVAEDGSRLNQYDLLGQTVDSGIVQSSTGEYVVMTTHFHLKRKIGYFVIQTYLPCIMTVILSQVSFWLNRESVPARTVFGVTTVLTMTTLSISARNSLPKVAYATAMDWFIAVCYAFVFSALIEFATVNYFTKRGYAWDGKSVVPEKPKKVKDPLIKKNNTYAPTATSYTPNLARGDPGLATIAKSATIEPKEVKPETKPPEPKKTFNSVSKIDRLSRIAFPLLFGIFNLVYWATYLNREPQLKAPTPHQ
Sequence of 5-hydroxytryptamine receptor 2B (P41595 whole entry): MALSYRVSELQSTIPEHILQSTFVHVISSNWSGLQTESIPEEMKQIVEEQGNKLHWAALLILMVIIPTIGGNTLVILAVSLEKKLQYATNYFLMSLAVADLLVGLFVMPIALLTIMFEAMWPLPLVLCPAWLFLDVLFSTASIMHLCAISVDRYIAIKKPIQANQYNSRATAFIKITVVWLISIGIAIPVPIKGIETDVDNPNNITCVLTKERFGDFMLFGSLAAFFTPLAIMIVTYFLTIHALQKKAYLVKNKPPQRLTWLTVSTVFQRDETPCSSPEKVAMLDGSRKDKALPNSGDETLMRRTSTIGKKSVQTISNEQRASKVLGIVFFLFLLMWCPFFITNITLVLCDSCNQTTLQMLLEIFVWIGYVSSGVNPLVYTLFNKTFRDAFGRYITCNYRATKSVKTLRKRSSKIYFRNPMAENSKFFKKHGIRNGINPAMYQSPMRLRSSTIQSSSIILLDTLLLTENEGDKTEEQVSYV
Sequence of Beta-2 adrenergic receptor (P07550 whole entry): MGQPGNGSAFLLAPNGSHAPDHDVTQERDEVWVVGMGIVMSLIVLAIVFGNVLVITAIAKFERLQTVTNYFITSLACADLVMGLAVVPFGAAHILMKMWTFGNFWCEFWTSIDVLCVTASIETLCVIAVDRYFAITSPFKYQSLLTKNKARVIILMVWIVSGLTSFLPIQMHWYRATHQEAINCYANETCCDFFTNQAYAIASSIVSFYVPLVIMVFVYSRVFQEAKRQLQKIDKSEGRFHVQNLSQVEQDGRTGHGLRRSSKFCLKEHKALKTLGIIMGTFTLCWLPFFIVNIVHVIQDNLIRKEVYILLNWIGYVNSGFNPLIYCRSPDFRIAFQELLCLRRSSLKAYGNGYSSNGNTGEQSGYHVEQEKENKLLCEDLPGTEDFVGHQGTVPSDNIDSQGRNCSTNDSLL
Sequence of 5-hydroxytryptamine receptor 2A (P28223 whole entry): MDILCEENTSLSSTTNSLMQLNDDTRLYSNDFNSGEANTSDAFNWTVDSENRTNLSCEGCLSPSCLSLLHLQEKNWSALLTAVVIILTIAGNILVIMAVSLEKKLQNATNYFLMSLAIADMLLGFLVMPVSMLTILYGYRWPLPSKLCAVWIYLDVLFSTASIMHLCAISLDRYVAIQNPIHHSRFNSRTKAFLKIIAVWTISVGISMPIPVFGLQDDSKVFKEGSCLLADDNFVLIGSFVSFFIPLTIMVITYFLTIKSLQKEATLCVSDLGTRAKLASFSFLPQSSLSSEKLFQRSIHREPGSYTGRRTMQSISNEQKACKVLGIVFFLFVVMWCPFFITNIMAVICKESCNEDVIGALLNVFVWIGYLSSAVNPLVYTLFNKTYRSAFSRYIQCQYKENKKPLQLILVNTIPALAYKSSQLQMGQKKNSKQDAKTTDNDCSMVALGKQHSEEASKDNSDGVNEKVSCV

Broadly, the AC50 is the midpoint of the concentration-response curve, whichever way the signal moves. A lower AC50 goes with greater potency. With `C=C1CC[C@@]2(O)[C@H]3Cc4ccc(O)c5c4[C@@]2(CCN3CC2CC2)[C@H]1O5`, the concentration at half-maximal activity (AC50) in experiment [1], in experiment [2], in experiment [3], in experiment [4], in [5] and in [6] was over 30 µM throughout. The AC50 in [7], in [8], in experiment [9], in [10], in experiment [11] and in [12] was over 30 µM throughout. In experiment [13], this compound showed an AC50 of over 30 µM.
In the case of `Nc1ncnc2c1ncn2[C@@H]1O[C@H](COP(=O)(O)O)[C@@H](O)[C@H]1O` [ADENOSINE PHOSPHATE], the AC50 in experiment [1], in [2], in [3], in experiment [4], in experiment [5] and in [6] was over 30 µM in each case. In addition, the AC50 in experiment [8], in experiment [9], in experiment [10], in [11], in experiment [12] and in experiment [14] was over 30 µM throughout. The compound also showed a half-maximal activity concentration (AC50) in experiment [13] of over 30 µM.
As for `[H]/N=C(/N)c1ccc(NCc2nc3cc(C(=O)N(CCC(=O)O)c4ccccn4)ccc3n2C)cc1` [DABIGATRAN], the AC50 in [1], in [2], in [3], in [4], in [5] and in experiment [6] was over 30 µM in each case. Besides, the AC50 in [7], in experiment [8], in [9], in [10], in experiment [11] and in experiment [12] was over 30 µM throughout. In addition, the AC50 in [13] was over 30 µM.
As to `C[C@H]1C[C@@H]2[C@H]([C@@H](O)C[C@@]3(C)[C@H]2CC[C@]3(O)C(=O)COC(=O)CCC(=O)O)[C@@]2(C)C=CC(=O)C=C12` [METHYLPREDNISOLONE HEMISUCCINATE], the AC50 in [1], in experiment [2], in experiment [3], in [4], in experiment [5] and in [6] was over 30 µM throughout. Further, the concentration at half-maximal activity (AC50) in [7], in experiment [8], in experiment [9], in [10], in experiment [11] and in experiment [12] was over 30 µM in each case. The compound also came in with an AC50 in experiment [13] of over 30 µM.
Take `CCCCC(C)(O)C/C=C/[C@H]1[C@H](O)CC(=O)[C@@H]1CCCCCCC(=O)OC` (stereo partly specified) [MISOPROSTOL]: the AC50 in experiment [1], in experiment [2], in [3], in experiment [4], in [5] and in experiment [6] was over 30 µM throughout. Besides, the AC50 in experiment [7], in [8], in experiment [9], in [10], in experiment [11] and in [12] was over 30 µM throughout. Also, in [13], the half-maximal activity concentration (AC50) was over 30 µM.
As for `CCCCCCC(C)(C)c1cc(O)c2c(c1)OC(C)(C)C1CCC(=O)CC21` (stereo unspecified) [NABILONE], the AC50 in experiment [1] is over 30 µM; in experiment [2], over 30 µM; in [3], over 10 µM; in [4] it was over 30 µM; in [5], over 30 µM; in [6], over 30 µM. Moreover, the AC50 in experiment [7], in experiment [8], in [9], in experiment [10], in experiment [11] and in experiment [12] was over 30 µM in each case. This compound also had an AC50 in [13] of over 30 µM.
For the compound `Cc1c(Cl)cccc1Nc1ccccc1C(=O)O` [TOLFENAMIC ACID], the half-maximal activity concentration (AC50) in experiment [1], in experiment [2], in experiment [3], in experiment [4], in [5] and in experiment [6] was over 30 µM each time. Moreover, the AC50 in experiment [8] is over 30 µM; in [9], over 30 µM; in experiment [10], 0.6 µM; in experiment [11], over 30 µM; in [12] it was over 30 µM; in experiment [13] it was over 30 µM.
As for `COc1ccc(C(=O)N2CCN(c3ccc4c(c3)CCC(=O)N4)CC2)cc1OC` [VESNARINONE], the AC50 in experiment [1], in [2], in experiment [3], in experiment [4], in experiment [5] and in experiment [6] was over 30 µM in each case. In addition, the concentration at half-maximal activity (AC50) was over 30 µM in [8]; over 30 µM in [9]; over 30 µM in experiment [10]; over 30 µM in experiment [11]; 21 µM in [12]; over 30 µM in experiment [14]. The concentration at half-maximal activity (AC50) in experiment [13] was over 30 µM.
As for `Cc1ccc(-c2nc3ccc(C)cn3c2CC(=O)N(C)C)cc1` [ZOLPIDEM], the AC50 in experiment [1], in experiment [2], in [3], in [5], in [6] and in experiment [7] was over 30 µM throughout. Moreover, the AC50 in experiment [8], in experiment [9], in experiment [10], in [11], in [12] and in experiment [14] was over 30 µM each time. The AC50 in [13] is over 30 µM.
